Measured values reported in publication doi:10.1101/2025.08.13.670152v1 (biorxiv, 2025).

Target: CHI3L1/galectin-3 (CHI3L1-His and galectin-3-GST) (Homo sapiens, UniProt P36222)
Assay: AlphaLISA, inhibition of CHI3L1/galectin-3 interaction
Assay type: biochemical
Details: read-out: % inhibition at 100 μM

Sequence of CHI3L1/galectin-3 (CHI3L1-His and galectin-3-GST) (P36222 22-383): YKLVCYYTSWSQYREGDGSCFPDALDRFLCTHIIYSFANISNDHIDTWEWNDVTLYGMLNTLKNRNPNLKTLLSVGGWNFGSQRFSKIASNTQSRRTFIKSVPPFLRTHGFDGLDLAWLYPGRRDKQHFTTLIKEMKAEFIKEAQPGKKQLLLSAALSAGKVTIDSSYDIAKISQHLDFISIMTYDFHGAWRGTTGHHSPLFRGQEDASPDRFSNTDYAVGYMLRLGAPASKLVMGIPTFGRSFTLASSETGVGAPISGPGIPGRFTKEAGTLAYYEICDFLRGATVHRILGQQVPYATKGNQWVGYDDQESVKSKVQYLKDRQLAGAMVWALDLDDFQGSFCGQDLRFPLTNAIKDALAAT
Sequence of CHI3L1/galectin-3 (CHI3L1-His and galectin-3-GST) (P17931 2-250 partner): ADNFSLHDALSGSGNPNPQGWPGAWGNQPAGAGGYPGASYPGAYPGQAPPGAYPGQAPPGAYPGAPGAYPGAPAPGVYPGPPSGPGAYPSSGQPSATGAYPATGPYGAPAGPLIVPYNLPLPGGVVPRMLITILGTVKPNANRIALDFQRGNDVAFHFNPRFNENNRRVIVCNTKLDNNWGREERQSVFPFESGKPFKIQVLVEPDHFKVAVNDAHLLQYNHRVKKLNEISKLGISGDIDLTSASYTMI

Question: For `CC(C)c1cccc(-c2ccc3ncn(C)c(=O)c3c2)c1` [3C13], which inhibition at 100 µM is on record?
Answer: Its inhibition at 100 µM is 27.5 ± 3.1%.
